Values after ≈ are worked out from the molar mass of the structure shown.
Assays:
[1] = Inhibition of Staphylococcus aureus MraY using UDPMurNAc-dansylpentapeptide as substrate incubated for 3 hrs by fluorescence method
[2] = tested on: Pseudomonas aeruginosa; experiment: Antibacterial activity against Pseudomonas aeruginosa PAO1 incubated for 18 hrs by CLSI based broth microdilution method; format: functional

Structure (SMILES)	IC50 [1] [nM]	MIC [2] [µg/mL]
CCCCCCCCCCCCCCC[C@H](NC(=O)[C@@H](NC(=O)N[C@H](C(=O)O)C(C)C)[C@@H]1CCNC(=N)N1)C(=O)NCCCN[C@H](C(=O)O)[C@H](O[C@@H]1O[C@H](CN)[C@@H](O)[C@H]1O)[C@H]1O[C@@H](n2ccc(=O)[nH]c2=O)[C@H](O)[C@@H]1O	1.1	–
CCCCCCCCCCCCCCC[C@H](N)C(=O)NCCCN[C@H](C(=O)O)[C@H](O[C@@H]1O[C@H](CN)[C@@H](O)[C@H]1O)[C@H]1O[C@@H](n2ccc(=O)[nH]c2=O)[C@H](O)[C@@H]1O	2.7	–
CC[C@H](C)[C@H](NC(=O)N[C@@H](Cc1c[nH]c2ccccc12)C(=O)O)C(=O)N[C@H](C(=O)N/C=C1\O[C@@H](n2ccc(=O)[nH]c2=O)[C@H](O)[C@@H]1O)[C@H](C)N(C)C(=O)[C@@H](N)Cc1cccc(O)c1	1.4	16 (≈ 18.6 µM)
CC(C)[C@H](NC(=O)N[C@@H](Cc1c[nH]c2ccccc12)C(=O)O)C(=O)N[C@H](C(=O)N/C=C1\O[C@@H](n2ccc(=O)[nH]c2=O)[C@H](O)[C@@H]1O)[C@H](C)N(C)C(=O)[C@@H](N)Cc1cccc(O)c1	1.5	16 (≈ 18.9 µM)
CC(=O)N[C@H](C(=O)N/C=C1\O[C@@H](n2ccc(=O)[nH]c2=O)[C@H](O)[C@@H]1O)[C@H](C)N(C)C(=O)[C@@H](N)Cc1cccc(O)c1	> 1000	–
C[C@@H]([C@H](NC(=O)[C@H](Cc1ccc(O)cc1)NC(=O)N[C@@H](Cc1c[nH]c2ccccc12)C(=O)O)C(=O)N/C=C1\O[C@@H](n2ccc(=O)[nH]c2=O)[C@H](O)[C@@H]1O)N(C)C(=O)[C@@H](N)Cc1cccc(O)c1	0.22	16 (≈ 17.5 µM)
C[C@@H]([C@H](NC(=O)[C@H](Cc1ccccc1)NC(=O)N[C@@H](Cc1c[nH]c2ccccc12)C(=O)O)C(=O)N/C=C1\O[C@@H](n2ccc(=O)[nH]c2=O)[C@H](O)[C@@H]1O)N(C)C(=O)[C@@H](N)Cc1cccc(O)c1	0.6	16 (≈ 17.9 µM)
C[C@H](NC(=O)N[C@@H](Cc1c[nH]c2ccccc12)C(=O)O)C(=O)N[C@H](C(=O)N/C=C1\O[C@@H](n2ccc(=O)[nH]c2=O)[C@H](O)[C@@H]1O)[C@H](C)N(C)C(=O)[C@@H](N)Cc1cccc(O)c1	1.3	64 (≈ 78.1 µM)
CC(C)C[C@H](NC(=O)N[C@@H](Cc1c[nH]c2ccccc12)C(=O)O)C(=O)N[C@H](C(=O)N/C=C1\O[C@@H](n2ccc(=O)[nH]c2=O)[C@H](O)[C@@H]1O)[C@H](C)N(C)C(=O)[C@@H](N)Cc1cccc(O)c1	4	32 (≈ 37.1 µM)
CSCC[C@H](NC(=O)N[C@@H](Cc1c[nH]c2ccccc12)C(=O)O)C(=O)N[C@H](C(=O)N/C=C1\O[C@@H](n2ccc(=O)[nH]c2=O)[C@H](O)[C@@H]1O)[C@H](C)N(C)C(=O)[C@@H](N)Cc1cccc(O)c1	1	32 (≈ 36.4 µM)
CCCCCCCCCCCCCCCC(=O)N[C@@H](C)C(=O)N[C@H](C(=O)N/C=C1\O[C@@H](n2ccc(=O)[nH]c2=O)[C@H](O)[C@@H]1O)[C@H](C)N(C)C(=O)[C@@H](N)Cc1cccc(O)c1	> 1000	–
C[C@@H]([C@H](NC(=O)[C@H](CS)NC(=O)N[C@@H](Cc1c[nH]c2ccccc12)C(=O)O)C(=O)N/C=C1\O[C@@H](n2ccc(=O)[nH]c2=O)[C@H](O)[C@@H]1O)N(C)C(=O)[C@@H](N)Cc1cccc(O)c1	1.6	128 (≈ 150 µM)
CC(=O)N[C@@H](C)C(=O)N[C@H](C(=O)N/C=C1\O[C@@H](n2ccc(=O)[nH]c2=O)[C@H](O)[C@@H]1O)[C@H](C)N(C)C(=O)[C@@H](N)Cc1cccc(O)c1	> 1000	–
C[C@@H]([C@H](NC(=O)CNC(=O)N[C@@H](Cc1c[nH]c2ccccc12)C(=O)O)C(=O)N/C=C1\O[C@@H](n2ccc(=O)[nH]c2=O)[C@H](O)[C@@H]1O)N(C)C(=O)[C@@H](N)Cc1cccc(O)c1	4.2	> 128
CC(C)C[C@H](NC(=O)[C@@H](NC(=O)N[C@H](C(=O)O)C(C)C)[C@@H]1CCNC(=N)N1)C(=O)NCCCN[C@H](C(=O)O)[C@H](O[C@@H]1O[C@H](CN)[C@@H](O)[C@H]1O)[C@H]1O[C@@H](n2ccc(=O)[nH]c2=O)[C@H](O)[C@@H]1O [MURAMYCIN D2]	2.8	–

Reference: ChEMBL document CHEMBL4725357, “Elucidating the Structural Requirement of Uridylpeptide Antibiotics for Antibacterial Activity” (J Med Chem, 2020)
